Reference: patent publication US20230257366A1, “SULFUR-CONTAINING ISOINDOLINE DERIVATIVE, AND PREPARATION METHOD THEREFOR AND MEDICAL USE THEREOF” (JIANGSU HENGRUI PHARMACEUTICALS CO., LTD., priority 2020, published 2023)

How the values were obtained:
NCI-H929 xenograft tumor = assay: Pharmacodynamic test: NCI-H929 xenograft tumor in CB-17 SCID mice; type: in vivo
Procedure: This experiment was performed to evaluate the inhibition effect of the compound of Example 6 and the control example CC-92480 on the growth of human multiple myeloma cell NCI-H929 xenograft tumor in CB-17 SCID mice.
Compound of Example 6; control example CC-92480 (see compound 2 of WO2019014100A1, synthesized according to the method disclosed therein)
Solutions of the compound of Example 6 and the control example CC-92480 were prepared with 5% DMSO+20% PEG400+70% (10% TPGS)+5% (1% HPMC K100LV).
Thirty CB-17 SCID female mice, purchased from Beijing Vital River Laboratory Animal Technology Co., Ltd. (certificate No. 20170011006049, SCXK (Shanghai) 2017-0011), weighing about 19 g at the time of purchase, were bred at 5 mice/cage (in 12/12 hour light/dark cycle, at a constant temperature of 23±1° C. and humidity of 50%-60%) and had free access to food and water.
After adaptive feeding, the CB-17 SCID mice were grouped as follows:
NCI-H929 cells in a logarithmic growth phase were inoculated subcutaneously into the right flank of 30 female CB-17 SCID mice at 5×10^6 cells/mouse/100 μL (containing 50 μL of Matrigel). After 10 days, when the tumor volume of the tumor-bearing mice reached about 200 mm^3, the mice were randomly divided into 3 groups according to the tumor volume and body weight: vehicle control group, CC-92480-1 mpk, compound of Example 6-1 mpk, with 7 mice in each group. The day of grouping was set as Day 0 (D0), and intragastric administration was performed once a day for 11 days (Table 2). For the tumor-bearing mice, the tumor volume was measured with a vernier caliper and the body weight was measured with a balance twice a week, and the data were recorded.
All data were plotted and statistically analyzed using Excel and GraphPad Prism 5 software.
The tumor volume (V) was calculated as follows: V=½×a×b^2, where a and b represent length and width, respectively.
The relative tumor proliferation rate T/C (%)=(T−T0)/(C−C0)×100(%), where T and C are the tumor volume of animals at the end of the experiment in the treatment group and control group, respectively; T0 and C0 are the tumor volume of animals at the beginning of the experiment in the treatment group and control group, respectively.
Tumor growth inhibition TGI (%)=1−T/C (%), and when TGI (%) exceeds 100%, no specific value will be shown, and it is expressed only by >100%.
Tumor regression (%)=[(T0−T)/T0]×100(%).

[1] = Pharmacokinetic evaluation in mice after intragastric administration (LC/MS/MS); type: in vivo; conditions: female, mouse, plasma, po, mice, intragastric, 2 mg/kg
Procedure: The drug concentration in the plasma of the test animals (mice) at different time points after intragastric administration of the compound of Example 6 and the control example CC-92480 was determined by an LC/MS/MS method. The pharmacokinetic behavior of the compound of the present disclosure in mice was studied and its pharmacokinetic profile was evaluated.
Compound of Example 6 and control example CC-92480.
Eighteen mice, female, purchased from Beijing Vital River Laboratory Animal Technology Co., Ltd., with animal production license number of SCXK (Shanghai) 2017-0005.
A certain amount of compound of Example 6 was weighed, dissolved by adding 5% by volume of DMSO and 5% Tween 80 (Shanghai Titan Scientific Co., Ltd.), and then prepared into a 0.1 mg/mL clear solution by adding 90% normal saline.
A certain amount of the control example CC-92480 was weighed, dissolved by adding 5% by volume of DMSO and 5% Tween 80 (Shanghai Titan Scientific Co., Ltd.), and then prepared into a 0.1 mg/mL clear solution by adding 90% normal saline.
Nine mice were intragastrically administered with the compound of Example 6 at a dose of 2 mg/kg and at a volume of 0.2 mL/10 g.
Nine mice were intragastrically administered with the control example CC-92480 at a dose of 2 mg/kg and at a volume of 0.2 mL/10 g.
Mice were intragastrically administered with the compound of Example 6 and the control example CC-92480, and 0.2 mL of blood was collected before the administration and 0.25 h, 0.5 h, 1.0 h, 2.0 h, 4.0 h, 6.0 h, 8.0 h, 11.0 h and 24.0 h after the administration (3 animals at each time point), placed in EDTA-K2 anticoagulation tubes, and centrifuged at 10,000 rpm for 1 min(4° C.). Plasma was separated within 1 h, and stored at −20° C. for testing. The process from blood collection to centrifugation was performed under an ice bath.
The content of the test compounds at different concentrations in mouse plasma after the administration was determined: 25 μL of mouse plasma at each time point after the administration was mixed with 50 μL (100 ng/mL) of internal standard solution camptothecin (National Institutes for Drug Control) and 175 μL of acetonitrile. The mixture was vortexed for 5 min and centrifuged for 10 min (3700 rpm/min), and 1 μL of the supernatant of the plasma sample was taken for LC/MS/MS assay (API4000 triple quadrupole tandem mass spectrometer, Applied Biosystems, USA; Shimadzu, LC-30AD ultra high performance liquid chromatography system, Shimadzu, Japan).

Number of remaining animals/group (NCI-H929 xenograft tumor; 1 mg/kg qd/11d po): 7/7 | Vd/F ([1]; read-out: Apparent volume of distribution Vz/F): 1.79 L/kg | AUC ([1]; read-out: Area under curve AUC): 4690 ng·h/mL | CL/F ([1]; read-out: Clearance CL/F): 7.1 mL/min/kg | half-life ([1]; read-out: Half-life T½ (converted)): 2.9 h | Cmax ([1]; read-out: Plasma concentration Cmax): 799 ng/mL | MRT ([1]; read-out: Residence time MRT): 4.6 h
Compound: N#Cc1ccc(N2CCC(Sc3ccc(COc4cccc5c4CN([C@H]4CCC(=O)NC4=O)C5=O)cn3)CC2)c(F)c1 [Compound 6, (S)-4-(4-((5-(((2-(2,6-dioxopiperidin-3-yl)-1-oxoisoindolin-4-yl)oxy)methyl)pyridin-2-yl)thio)piperidin-1-yl)-3-fluorobenzonitrile]
tumor inhibition rate (TGI) (NCI-H929 xenograft tumor; 1 mg/kg qd, 11 days after administration): > 100% | Mean tumor volume D0 (NCI-H929 xenograft tumor; 1 mg/kg qd, baseline at day of grouping (D0), n=7): 155.4 mm^3 | % tumor regression D11 (NCI-H929 xenograft tumor; 1 mg/kg qd/11d po (i.g.), D11): 88% | Mean tumor volume D11 (NCI-H929 xenograft tumor; 1 mg/kg qd/11d po (i.g.), D11, n=7): 18.6 mm^3
